Experiments:
[1] = tested on: HaCaT cells; experiment: Antiproliferative activity against HaCaT cells (human keratinocyte cell line); type: cell-based; settings: 48 h, read-out: AA IC50 (antiproliferative activity)
[2] = Inhibition of AAPH-induced lipid peroxidation in bovine brain phospholipid liposomes; type: biochemical; settings: AAPH-induced; bovine brain phospholipid liposomes; N = 3 or more; read-out: LPO IC50 (inhibition of lipid peroxidation)

Row | Structure (SMILES) | IC50 [1] [µM] | IC50 [2] [µM]
1 | COC(=O)CCCCc1ccc2c(c1O)C(=O)c1c(O)cccc1C2 [IVB, Methyl 5-(9,10-Dihydro-1,8-dihydroxy-9-oxo-2-anthracene)pentanoate] | 1.8 | 62
2 | COC(=O)CCCCCc1ccc2c(c1O)C(=O)c1c(O)cccc1C2 [VB, Methyl 6-(9,10-Dihydro-1,8-dihydroxy-9-oxo-2-anthracene) hexaonate] |  | 120
3 | CC(C(=O)N(C)O)c1ccc2c(c1O)C(=O)c1c(O)cccc1C2 (stereo not drawn) [VIID, N-Hydroxy-N-methyl-2-(9,10-dihydro-1,8-dihydroxy-9-oxo-2-anthracene)propionamide] | 1.5 | 8
4 | COC(=O)C(c1ccc2c(c1O)C(=O)c1c(O)cccc1C2)C(C)C (stereo not drawn) [VIIIB, Methyl 2-(9,10-Dihydro-1,8-dihydroxy-9-oxo-2-anthracene)-3-methylbutanoate] |  | 165

— patent US5922891A, “2-substituted 1,8-dihydroxy-9(10H)-anthracenone pharmaceuticals” (priority 1997, dated 1999)
